Assay results taken from the NIST ThermoML archive (doi:10.1021/je9003178).
± gives the expanded uncertainty stated by the source.

Experiment: activity coefficient (dimensionless); of the first substance listed, at infinite dilution; xn = mol fraction of the nth substance listed
Conditions: Liquid, Chromatography, x1 = 0

| SMILES | activity coefficient (322.65 K) | activity coefficient (343.85 K) | activity coefficient (352.65 K) | activity coefficient (332.85 K) | activity coefficient (343.15 K) |
| --- | --- | --- | --- | --- | --- |
| Cc1ccccc1C [1,2-dimethylbenzene] + CCCCCC[N+](C)(C)C.O=S(=O)([N-]S(=O)(=O)C(F)(F)F)C(F)(F)F | 1.66 ± 0.068 | 1.69 ± 0.07 | 1.76 ± 0.075 |  |  |
| Cc1ccccc1C [1,2-dimethylbenzene] + CCn1cc[n+](C)c1.N#CN=C=[N-] | 5.86 ± 0.27 |  |  | 5.8 ± 0.27 | 5.75 ± 0.26 |
| Cc1cccc(C)c1 [1,3-dimethylbenzene] + CCCCCC[N+](C)(C)C.O=S(=O)([N-]S(=O)(=O)C(F)(F)F)C(F)(F)F | 1.8 ± 0.077 | 1.82 ± 0.078 | 1.89 ± 0.083 |  |  |
| Cc1cccc(C)c1 [1,3-dimethylbenzene] + CCn1cc[n+](C)c1.N#CN=C=[N-] | 7.4 ± 0.34 |  |  | 8.39 ± 0.38 | 7.27 ± 0.33 |
| Cc1ccc(C)cc1 [1,4-dimethylbenzene] + CCCCCC[N+](C)(C)C.O=S(=O)([N-]S(=O)(=O)C(F)(F)F)C(F)(F)F | 1.82 ± 0.079 | 1.82 ± 0.079 | 1.86 ± 0.081 |  |  |
| Cc1ccc(C)cc1 [1,4-dimethylbenzene] + CCn1cc[n+](C)c1.N#CN=C=[N-] | 6.93 ± 0.32 |  |  | 7.05 ± 0.32 | 6.79 ± 0.31 |
| C1COCCO1 [1,4-dioxane] + CCCCCC[N+](C)(C)C.O=S(=O)([N-]S(=O)(=O)C(F)(F)F)C(F)(F)F | 0.655 ± 0.03 | 0.661 ± 0.03 | 0.68 ± 0.03 |  |  |
| C1COCCO1 [1,4-dioxane] + CCn1cc[n+](C)c1.N#CN=C=[N-] | 0.89 ± 0.03 |  |  | 1.24 ± 0.04 | 1.25 ± 0.04 |
| C#CCCCCC [1-heptyne] + CCCCCC[N+](C)(C)C.O=S(=O)([N-]S(=O)(=O)C(F)(F)F)C(F)(F)F | 3.57 ± 0.16 | 3.5 ± 0.16 | 3.54 ± 0.16 |  |  |
| C#CCCCCC [1-heptyne] + CCn1cc[n+](C)c1.N#CN=C=[N-] | 14.5 ± 0.67 |  |  | 14.3 ± 0.66 | 14.1 ± 0.65 |
| C#CCCCC [1-hexyne] + CCCCCC[N+](C)(C)C.O=S(=O)([N-]S(=O)(=O)C(F)(F)F)C(F)(F)F | 2.62 ± 0.12 | 2.56 ± 0.12 | 2.58 ± 0.12 |  |  |
| C#CCCCC [1-hexyne] + CCn1cc[n+](C)c1.N#CN=C=[N-] | 8.7 ± 0.4 |  |  | 8.47 ± 0.39 | 8.44 ± 0.39 |
| CCC[N+](=O)[O-] [1-nitropropane] + CCCCCC[N+](C)(C)C.O=S(=O)([N-]S(=O)(=O)C(F)(F)F)C(F)(F)F | 0.699 ± 0.03 | 0.681 ± 0.03 | 0.695 ± 0.03 |  |  |
| CCC[N+](=O)[O-] [1-nitropropane] + CCn1cc[n+](C)c1.N#CN=C=[N-] | 1.51 ± 0.06 |  |  | 1.5 ± 0.06 | 1.49 ± 0.06 |
| OCC(F)(F)F [2,2,2-trifluoroethanol] + CCCCCC[N+](C)(C)C.O=S(=O)([N-]S(=O)(=O)C(F)(F)F)C(F)(F)F | 0.157 ± 0.038 | 0.402 ± 0.034 | 0.393 ± 0.034 |  |  |
| OCC(F)(F)F [2,2,2-trifluoroethanol] + CCn1cc[n+](C)c1.N#CN=C=[N-] | 0.1 ± 0.04 |  |  | 0.11 ± 0.04 | 0.11 ± 0.04 |
| CC(C)CC(C)(C)C [2,2,4-trimethylpentane] + CCCCCC[N+](C)(C)C.O=S(=O)([N-]S(=O)(=O)C(F)(F)F)C(F)(F)F | 13.1 ± 0.6 | 12.1 ± 0.56 | 11.8 ± 0.54 |  |  |
| CC(C)CC(C)(C)C [2,2,4-trimethylpentane] + CCn1cc[n+](C)c1.N#CN=C=[N-] | 202 ± 9.5 |  |  | 180 ± 8.5 | 162 ± 7.6 |
| CC(C)CO [2-methyl-1-propanol] + CCCCCC[N+](C)(C)C.O=S(=O)([N-]S(=O)(=O)C(F)(F)F)C(F)(F)F | 2.1 ± 0.095 | 1.71 ± 0.071 | 1.63 ± 0.066 |  |  |
| CC(C)CO [2-methyl-1-propanol] + CCn1cc[n+](C)c1.N#CN=C=[N-] | 1.48 ± 0.06 |  |  | 1.4 ± 0.05 | 1.33 ± 0.05 |
